Data: publication PMC6009892, “A novel series of pyrazole-platinum(II) complexes as potential anti-cancer agents that induce cell cycle arrest and apoptosis in breast cancer cells” (Journal of Enzyme Inhibition and Medicinal Chemistry, 2018)
Where two headings read alike, the source gives them in different places.

Experiments:
Format in all cases: cell-based, human
[1] = tested on: MCF-7 breast cancer cells; experiment: MTT cell viability assay, MCF-7; conditions: 5-50 μM, read-out: IC50 (cell viability, MTT)
Protocol: (§1) MCF-7, MDA-MB-231 (both human breast cancer cell lines), and fibroblast cells were obtained from American Type Culture Collection (ATCC, Manassas, VA, USA). DMEM and FBS used in a cell culture were from Gibco (USA). Glutamine, penicillin, and streptomycin were obtained from Quality Biologicals Inc. (USA). DMEM media was blended with 50 units/ml of penicillin, 50 μg/ml of streptomycin, 10% of FBS. All cell lines were cultured in 5% CO2 and fully humidified at 37 °C. Cells were cultured in Costar flasks and sub-confluent cells were detached with 0.05% trypsin and 0.02% ethylenediaminetetraacetic acid in calcium-free phosphate-buffered saline (PBS), counted in hemocytometers, and plated at 5 × 10^5 cells/well of six-well plates (Thermo Scientific, New York, NY, USA) in 2 ml of growth medium (DMEM without phenol red with 10% CPSR1). Cells reached about 80% of confluency at day 2, and in most cases such cells were used for the assays.
(§2) The viability of cultured cells was decided through assaying the reduction of MTT to formazan. In brief, MCF-7, MDA-MB-231, and fibroblast cells line were seeded at an initial density of 1 × 10^5 cells per well. Then, the cells were incubated at 37 °C for 24 h. Subsequently, cultured cells were treated with a medium containing concentrations (5, 10, 20, 30, 40, and 50 μM) of PtPz1–PtPz6 for 24 h and 48 h. After the incubation period, MTT was added into all wells in the final concentration of 0.5 mg/ml. After that, the cells were incubated at 37 °C for 4 h. Then, by removing the medium, 200 μl of DMSO was added to all wells. As a result, insoluble formazan was dissolved in DMSO (0.5%). At 570 nm (630 nm as a reference), the absorbance was measured in an Evolution 201 reader (Thermo Scientific, Waltham, MA).

[2] = tested on: MDA-MB-231 breast cancer cells; experiment: MTT cell viability assay, MDA-MB-231; conditions: 5-50 μM, read-out: IC50 (cell viability, MTT)
Protocol: as §1, §2

[3] = tested on: fibroblast cells; experiment: MTT cell viability assay, fibroblasts; conditions: 5-50 μM, read-out: IC50 (cell viability, MTT)
Protocol: as §1, §2

[4] = tested on: MCF-7 breast cancer cells; experiment: DNA fragmentation TUNEL assay, MCF-7; conditions: MCF-7, 20 μM, 24 h; control 4.0%
Protocol: (§3) DNA fragmentation associated with apoptosis was examined by the terminal deoxynucleotidyltransferase (TdT)- mediated dUTP nick end labeling (TUNEL) method using a commercial assay kit (APO-Direct Kit; BD Pharmingen, San Diego, CA). After treatment, the cells were fixed with 1% paraformaldehyde in PBS (4°C, 30 min), washed in PBS, and permeabilised with ice-cold 70% ethanol. The APO-Direct Kit TUNEL assay was performed as described by the manufacturer. Briefly, the fixed cells were washed twice using the kit wash buffer, and after centrifugation the supernatant was discarded. The DNA labeling solution (containing TdT enzyme and FITC-dUTP) was added to the cell pellet, and the re-suspended mixture was incubated for 1 h at 37°C with occasional shaking. At the end of incubation time, rinse buffer was added, and after centrifugation the supernatant was discarded. We repeated the cell rinsing with rinse buffer, and then suspended the cell pellet in PI/RNase staining buffer. Cells were incubated at room temperature for 30 min and immediately analysed in a BD FACSCanto II flow cytometer. In total, 10,000 events were collected per test sample. The results were analysed with FACSDiva software (both from BD Biosciences Systems, San Jose, CA). The percentage of cells with distinctive apoptotic DNA strand breaks and distinguished by green fluorescent emission was calculated.

[5] = tested on: MDA-MB-231 breast cancer cells; experiment: DNA fragmentation TUNEL assay, MDA-MB-231; conditions: MDA-MB-231, 20 μM, 24 h
Protocol: as §3

[6] = tested on: caspase-3 in MDA-MB-231 breast cancer cells; experiment: FLICA caspase-3 activity, flow cytometry, MDA-MB-231; conditions: MDA-MB-231, 20 μM, 24 h
Protocol: (§4) Caspase-3 activity was measured using the FLICA Caspase 3 Assay Kit (ImmunoChemistry Technologies, Bloomington, MN, USA), according to the manufacturer’s instructions. Briefly, cultured MDA-MB-231 breast cancer cells (1 × 10^6) were washed with cold PBS twice and re-suspended in buffer. We added 5 µl of diluted FLICA reagent and 2 µl of Hoechst 33342 to 93 µl of cell suspension and mixed by pipetting. The cells were incubated for 60 min at 37°C. After incubation, the cells were washed twice in 400 µl of apoptosis wash buffer and centrifuged at 300 × g. After the last wash, we re-suspended the cells in 100 µl of apoptosis wash buffer supplemented with 10 µg/ml PI. Analysis was performed using the BD FACSCanto II flow cytometer, and the results were analysed with FACSDiva software (both from BD Biosciences Systems, San Jose, CA).

[7] = tested on: caspase-8 in MCF-7 breast cancer cells; experiment: FLICA caspase-8 activity, flow cytometry, MCF-7; conditions: MCF-7, 20 μM, 24 h
Protocol: as §4, with “Caspase-8 activity” for “Caspase-3 activity”, “Caspase 8” for “Caspase 3”, “cultured MCF-7 and” for “cultured”

[8] = tested on: caspase-8 in MDA-MB-231 breast cancer cells; experiment: FLICA caspase-8 activity, flow cytometry, MDA-MB-231; conditions: MDA-MB-231, 20 μM, 24 h
Protocol: as §4, with “Caspase-8 activity” for “Caspase-3 activity”, “Caspase 8” for “Caspase 3”, “cultured MCF-7 and” for “cultured”

[9] = tested on: caspase-9 in MCF-7 breast cancer cells; experiment: FLICA caspase-9 activity, flow cytometry, MCF-7; conditions: MCF-7, 20 μM, 24 h
Protocol: as §4, with “Caspase-9 activity” for “Caspase-3 activity”, “Caspase 9” for “Caspase 3”, “cultured MCF-7 and” for “cultured”, “re-suspended” for “re-suspended the”

[10] = tested on: caspase-9 in MDA-MB-231 breast cancer cells; experiment: FLICA caspase-9 activity, flow cytometry, MDA-MB-231; conditions: MDA-MB-231, 20 μM, 24 h
Protocol: as §4, with “Caspase-9 activity” for “Caspase-3 activity”, “Caspase 9” for “Caspase 3”, “cultured MCF-7 and” for “cultured”, “re-suspended” for “re-suspended the”

Substance: [Pt2(pyrazole)4(berenil)2]·4HCl·2H2O [PtPz4]
- IC50 ([1]; MCF-7, 24 h incubation): 32 ± 2 µM
- IC50 ([1]; MCF-7, 48 h incubation): 29 ± 2 µM
- IC50 ([2]; MDA-MB-231, 24 h incubation): 33 ± 3 µM
- IC50 ([2]; MDA-MB-231, 48 h incubation): 29 ± 2 µM
- IC50 ([3]; 24 h incubation): > 50 µM
- IC50 ([3]; 48 h incubation): 46 ± 2 µM
- percent of TUNEL positive cells [4]: 29.4%
- percent of TUNEL positive cells [5]: 22.9%
- percent of cells with active caspase-3 [6]: 14.8%
- percent of cells with active caspase-8 [7]: 30.9%
- percent of cells with active caspase-8 [8]: 29.5%
- percent of cells with active caspase-9 [9]: 29.7%
- percent of cells with active caspase-9 [10]: 29.6%
